In patent US11925450B2, “Methods and apparatus for guiding medical care based on detected gastric function” (Gravitas Medical, Inc., priority 2011, dated 2024):
Where two headings read alike, the source gives them in different places.

Legend:
[1] = cited from earlier work
[2] = in vivo; cited from earlier work
[3] = approximately 5 ml of 8.4% solution
Procedure: In particular, 5 mls of this 8.4% solution can be administered into a patient's stomach at least 15 minutes prior to baseline measurement of gastric juice pH and administration of stimulant, such as pentagastrin.

[4] = cited from earlier work; for Volume of HCl neutralized by 30 ml: 30 ml (sodium citrate 0.3M)
[5] = test system: gastric juice pH; conditions: cited from earlier work
[6] = test system: gastric juice pH; conditions: 30 ml of 0.3 M, pretreatment in elective cesarean section patients; cited from earlier work

SMILES: Cl.Cl.NCCc1ccn[nH]1 [betazole hydrocholoride]
- side effects ([1]; orally administered): few side effects

SMILES: CSCC[C@H](NC(=O)[C@H](Cc1c[nH]c2ccccc12)NC(=O)CCNC(=O)OC(C)(C)C)C(=O)N[C@@H](CC(=O)O)C(=O)N[C@@H](Cc1ccccc1)C(N)=O [pentagastrin]
- half-life [2]: approximately 10 minutes
- safety profile ([1]; in vivo): very good safety profile
- side effects ([1]; intravenous 0.5 mcg/kg bolus over 30 seconds): abdominal fullness and an urge to defecate
- side effects ([1]; intravenous administration): transient mild side effects, e.g., anxiety, palpitations

SMILES: O=C([O-])O.[Na+] [sodium bicarbonate]
- volume of gastric juice (pH 1.0) neutralized [3]: 50 ml

SMILES: NCCc1c[nH]cn1 [histamine]
- side effects ([1]; large doses): severe hypotension

SMILES: O=C([O-])CC(O)(CC(=O)[O-])C(=O)[O-].[Na+].[Na+].[Na+] [Sodium Citrate, sodium citrate]
- Volume of HCl neutralized by 30 ml ([4]; HCl pH 0.8): 140 mL
- Volume of HCl neutralized by 30 ml ([4]; HCl pH 1 (1.0)): 255 mL
- Volume of HCl neutralized by 30 ml ([4]; HCl pH 1 (1.0), listed as sodium citrate): up to 255 ml
- Volume of HCl neutralized by 30 ml ([4]; HCl pH 1.5): 750 mL
- pH (value in parentheses after the antacid's name) ([4]; presumably pH of the antacid itself, not explained): Sodium Citrate (8.5)
- gastric juice pH, mean after administration ([5]; 50 ml of 0.3 M into the stomach via nasogastric tube, within two minutes, baseline 1.2±0.1): 4.8
- gastric juice pH, range after administration ([5]; 50 ml of 0.3 M via nasogastric tube, within two minutes): 6.7-7.0
- time gastric juice pH maintained above 6 ([5]; 50 ml of 0.3 M): at least 2 hours
- gastric juice pH maintained after administration ([5]; 50 ml of 0.3 M, for at least 2 hours): above 6
- change in gastric juice pH [6]: significant increase in gastric juice pH
